Legend:
[1] = target: T1, SYK (Homo sapiens, UniProt P43405); experiment: Kinase inhibition assay, SYK; type: biochemical; conditions: biochemical potency;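 further: purified full-length human SYK pre-incubated 30 min with compound, then ULight-TK peptide phosphorylation for 1 h, detected with Europium-labeled antibody in Lance buffer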
T1 construct: Purified human, full-length SYK, KDR; purchased Carna Biosciences

[2] = target: T2, EGFR mutant Del19/T790M (Homo sapiens, UniProt P00533, DEL746-750/T790M); experiment: Kinase inhibition assay, EGFR del E746-A750/T790M; type: biochemical; conditions: read-out: EGFR mutants Del19/T790M
T2 construct: truncated human JAK3, EGFR mutants such as del E746-A750; purchased Carna Biosciences
T2 sequence (P00533 with tags, fused parts or gaps DEL746-750/T790M limits assumed): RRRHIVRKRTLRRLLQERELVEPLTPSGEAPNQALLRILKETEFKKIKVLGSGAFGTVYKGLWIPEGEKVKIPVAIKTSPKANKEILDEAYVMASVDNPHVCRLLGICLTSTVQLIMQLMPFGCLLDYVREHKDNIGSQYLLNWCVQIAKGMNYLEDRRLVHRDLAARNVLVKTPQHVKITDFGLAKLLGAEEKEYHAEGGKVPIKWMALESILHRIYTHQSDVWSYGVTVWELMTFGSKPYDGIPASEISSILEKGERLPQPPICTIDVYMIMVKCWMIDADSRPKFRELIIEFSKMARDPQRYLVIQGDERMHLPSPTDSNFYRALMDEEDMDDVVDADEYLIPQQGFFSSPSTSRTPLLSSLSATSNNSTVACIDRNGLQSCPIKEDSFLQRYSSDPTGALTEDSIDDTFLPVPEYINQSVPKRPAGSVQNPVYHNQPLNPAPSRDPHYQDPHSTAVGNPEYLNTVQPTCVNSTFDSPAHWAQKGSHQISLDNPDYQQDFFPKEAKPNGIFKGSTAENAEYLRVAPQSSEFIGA

[3] = target: T3, EGFR mutant Del19 (E746-A750) (Homo sapiens, UniProt P00533, DEL746-750); experiment: Kinase inhibition assay, EGFR del E746-A750; type: biochemical; conditions: read-out: EGFR mutants Del19 (E746-A750);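 further: truncated human EGFR mutant kinase, two-hour preincubation with compound, then one-hour reaction with ATP and ULight-PolyGT peptide, LANCE Europium-antibody phosphorylation readout, IC50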
T3 construct: truncated human JAK3, EGFR mutants such as del E746-A750; purchased Carna Biosciences
T3 sequence (P00533 with tags, fused parts or gaps DEL746-750 limits assumed): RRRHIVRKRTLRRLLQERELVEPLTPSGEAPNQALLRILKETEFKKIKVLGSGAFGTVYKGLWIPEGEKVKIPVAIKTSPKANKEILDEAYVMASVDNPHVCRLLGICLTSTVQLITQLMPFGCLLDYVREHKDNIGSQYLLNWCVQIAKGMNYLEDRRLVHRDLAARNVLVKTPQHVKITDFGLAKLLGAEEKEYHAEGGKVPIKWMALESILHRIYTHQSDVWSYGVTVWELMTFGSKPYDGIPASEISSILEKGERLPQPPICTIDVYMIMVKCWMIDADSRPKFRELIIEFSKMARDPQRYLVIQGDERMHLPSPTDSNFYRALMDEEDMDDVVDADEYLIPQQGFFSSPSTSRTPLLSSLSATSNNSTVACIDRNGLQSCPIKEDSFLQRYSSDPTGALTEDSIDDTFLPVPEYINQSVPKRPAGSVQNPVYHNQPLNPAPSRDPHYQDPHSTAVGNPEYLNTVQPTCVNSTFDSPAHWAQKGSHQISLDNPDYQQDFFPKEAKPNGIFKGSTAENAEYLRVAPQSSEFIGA

[4] = target: T4, EGFR mutant L858R/T790M (Homo sapiens, UniProt P00533, L858R/T790M); experiment: Kinase inhibition assay, EGFR L858R/T790M; type: biochemical; conditions: read-out: EGFR mutants L858R/T790M;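 further: truncated human enzyme preincubated two hours with compound, then one hour with one millimolar ATP and ULight-PolyGT peptide, Europium-labeled antibody detection, IC50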
T4 construct: truncated human JAK3, EGFR mutants such as del E746-A750; purchased Carna Biosciences
T4 sequence (P00533 669-1210 T790M/L858R limits assumed): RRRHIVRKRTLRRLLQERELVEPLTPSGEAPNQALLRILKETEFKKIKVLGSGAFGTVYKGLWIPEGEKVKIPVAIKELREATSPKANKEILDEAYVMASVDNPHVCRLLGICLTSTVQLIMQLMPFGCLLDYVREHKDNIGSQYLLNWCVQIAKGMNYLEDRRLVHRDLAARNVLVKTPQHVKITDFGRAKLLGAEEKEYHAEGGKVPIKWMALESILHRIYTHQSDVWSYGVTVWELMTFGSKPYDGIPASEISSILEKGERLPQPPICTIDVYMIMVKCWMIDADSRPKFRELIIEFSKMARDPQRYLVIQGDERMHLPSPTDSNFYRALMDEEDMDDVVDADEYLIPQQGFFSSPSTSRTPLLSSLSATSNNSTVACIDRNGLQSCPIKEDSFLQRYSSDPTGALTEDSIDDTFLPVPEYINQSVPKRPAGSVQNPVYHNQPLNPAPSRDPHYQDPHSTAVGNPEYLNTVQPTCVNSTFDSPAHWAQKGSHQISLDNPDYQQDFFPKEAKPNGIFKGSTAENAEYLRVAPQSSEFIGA

[5] = target: T5, EGFR mutant T790M (Homo sapiens, UniProt P00533, T790M); experiment: Kinase inhibition assay, EGFR mutant T790M; conditions: biochemical potency;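 further: truncated human EGFR mutant enzyme preincubated two hours with compound, then ATP plus ULight-PolyGT peptide for one hour, Europium-labeled antibody LANCE detection, IC50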
T5 construct: truncated human JAK3, EGFR mutants such as del E746-A750; purchased Carna Biosciences
T5 sequence (P00533 669-1210 T790M limits assumed): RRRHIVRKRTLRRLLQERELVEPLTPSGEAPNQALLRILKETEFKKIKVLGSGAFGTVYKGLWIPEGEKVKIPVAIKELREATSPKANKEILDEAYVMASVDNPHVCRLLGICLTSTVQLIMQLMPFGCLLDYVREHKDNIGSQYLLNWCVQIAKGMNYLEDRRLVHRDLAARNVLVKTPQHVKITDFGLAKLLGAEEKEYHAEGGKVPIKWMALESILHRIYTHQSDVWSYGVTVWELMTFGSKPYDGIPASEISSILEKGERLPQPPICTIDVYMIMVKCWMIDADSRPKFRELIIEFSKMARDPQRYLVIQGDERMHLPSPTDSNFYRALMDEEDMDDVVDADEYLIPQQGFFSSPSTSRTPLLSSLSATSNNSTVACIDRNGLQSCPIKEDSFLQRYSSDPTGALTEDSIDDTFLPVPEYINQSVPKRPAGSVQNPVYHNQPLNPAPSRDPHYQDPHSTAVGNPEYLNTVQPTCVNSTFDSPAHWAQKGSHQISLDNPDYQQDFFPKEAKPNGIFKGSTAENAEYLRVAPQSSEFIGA

[6] = target: T6, EGFR mutant L858R (Homo sapiens, UniProt P00533, L858R); experiment: Kinase inhibition assay, EGFR L858R; type: biochemical; conditions: read-out: EGFR mutants L858R;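 further: truncated human EGFR L858R kinase with compound preincubation, ULight-PolyGT peptide phosphorylation read by Europium-antibody Lance detection, IC50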
T6 construct: truncated human JAK3, EGFR mutants such as del E746-A750; purchased Carna Biosciences
T6 sequence (P00533 669-1210 L858R limits assumed): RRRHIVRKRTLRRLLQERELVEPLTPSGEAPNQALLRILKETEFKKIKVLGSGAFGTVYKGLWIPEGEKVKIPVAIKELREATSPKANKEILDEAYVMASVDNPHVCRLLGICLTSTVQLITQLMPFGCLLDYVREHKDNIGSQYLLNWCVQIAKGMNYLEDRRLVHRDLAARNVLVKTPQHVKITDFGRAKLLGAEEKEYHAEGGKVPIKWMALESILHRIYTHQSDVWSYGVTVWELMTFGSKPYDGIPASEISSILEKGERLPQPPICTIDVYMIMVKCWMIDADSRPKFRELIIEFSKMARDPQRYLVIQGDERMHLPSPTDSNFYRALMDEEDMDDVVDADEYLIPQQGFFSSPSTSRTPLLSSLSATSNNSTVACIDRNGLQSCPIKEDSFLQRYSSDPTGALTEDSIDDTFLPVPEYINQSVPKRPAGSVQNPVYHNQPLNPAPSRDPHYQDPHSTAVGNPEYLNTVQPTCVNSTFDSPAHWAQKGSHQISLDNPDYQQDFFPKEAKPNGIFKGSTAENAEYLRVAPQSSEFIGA

IC50 [1] [nM]	IC50 [2] [nM]	IC50 [3] [nM]	IC50 [4] [nM]	IC50 [5] [nM]	IC50 [6] [nM]	Compound
> 1000	> 1000	> 1000	> 1000	> 1000	> 1000	COc1cc(N2CCOCC2)c(N)cc1Nc1nccc(-n2cc(CN(C)C)c(-c3ccccc3)n2)n1 [Compound 153, N1-(4-(4-((dimethylamino)methyl)-3-phenyl-1H-pyrazol-1-yl)pyrimidin-2-yl)-6-methoxy-4-morpholinobenzene-1,3-diamine, reference compound]
> 1000	< 20	< 20	< 20	20 to 200	< 20	C=CC(=O)Nc1cc(Nc2nccc(-n3cc(CN(C)C)c(-c4ccccc4)n3)n2)c(OC)cc1N(C)C1COC1 [Compound 96, N-(5-(4-(4-((dimethylamino)methyl)-3-phenyl-1H-pyrazol-1-yl)pyrimidin-2-ylamino)-4-methoxy-2-(methyl(oxetan-3-yl)amino)phenyl)acrylamide]
> 1000	< 20	< 20	< 20	< 20	< 20	C=CC(=O)Nc1cc(Nc2nccc(-n3cc(CN4CCC4)c(C4CC4)n3)n2)c(OC)cc1N(C)C1COC1 [Compound 109, N-(5-(4-(4-(azetidin-1-ylmethyl)-3-cyclopropyl-1H-pyrazol-1-yl)pyrimidin-2-ylamino)-4-methoxy-2-(methyl(oxetan-3-yl)amino)phenyl)acrylamide]
20 to 200	< 20	< 20	< 20	< 20	20 to 200	C=CC(=O)Nc1cc(Nc2ncc(C)c(-n3cc(CN(C)C)cn3)n2)c(OC)cc1N1CCOCC1 [Compound 22, N-(5-(4-(4-((dimethylamino)methyl)-1H-pyrazol-1-yl)-5-methylpyrimidin-2-ylamino)-4-methoxy-2-morpholinophenyl)acrylamide]
> 1000	< 20	< 20	< 20	20 to 200	< 20	C=CC(=O)Nc1cc(Nc2ncc(C)c(-n3cc(CN4CCC4)c(C(C)(C)C)n3)n2)c(OC)cc1N1CCOCC1 [Compound 67, N-(5-(4-(4-(azetidin-1-ylmethyl)-3-tert-butyl-1H-pyrazol-1-yl)-5-methylpyrimidin-2-ylamino)-4-methoxy-2-morpholinophenyl)acrylamide]
20 to 200	< 20	< 20	< 20	< 20	< 20	C=CC(=O)Nc1cc(Nc2ncc(C)c(-n3cc(CN4CC(O)C4)c(C)n3)n2)c(OC)cc1N1CCCCC1 [Compound 30, N-(5-(4-(4-((3-hydroxyazetidin-1-yl)methyl)-3-methyl-1H-pyrazol-1-yl)-5-methylpyrimidin-2-ylamino)-4-methoxy-2-(piperidin-1-yl)phenyl)acrylamide]
201 to 1000	< 20	< 20	< 20	< 20	< 20	C=CC(=O)Nc1cc(Nc2ncc(C)c(-n3cc(CN4CCC4)cn3)n2)c(OC)cc1N1CCN(C(C)=O)CC1 [Compound 37, N-(2-(4-acetylpiperazin-1-yl)-5-(4-(4-(azetidin-1-ylmethyl)-1H-pyrazol-1-yl)-5-methylpyrimidin-2-ylamino)-4-methoxyphenyl)acrylamide]
201 to 1000	< 20	< 20	< 20	< 20	< 20	C=CC(=O)Nc1cc(Nc2nccc(-n3cc(CN(C)C)c(C4CC4)n3)n2)c(OC)cc1N1CCN(C(C)=O)CC1 [Compound 129, N-(2-(4-acetylpiperazin-1-yl)-5-(4-(3-cyclopropyl-4-((dimethylamino)methyl)-1H-pyrazol-1-yl)pyrimidin-2-ylamino)-4-methoxyphenyl)acrylamide]
> 1000	< 20	< 20	< 20	< 20	< 20	C=CC(=O)Nc1cc(Nc2ncc(C)c(-n3cc(CN(C)C)c(C(C)(C)C)n3)n2)c(OC)cc1N1CCOCC1 [Compound 7, N-(5-(4-(3-tert-butyl-4-((dimethylamino)methyl)-1H-pyrazol-1-yl)-5-methylpyrimidin-2-ylamino)-4-methoxy-2-morpholinophenyl)acrylamide]
201 to 1000	< 20	< 20	< 20	< 20	< 20	C=CC(=O)Nc1cc(Nc2nccc(-n3cc(CN(C)C)c(-c4cccs4)n3)n2)c(OC)cc1N1CCOCC1 [Compound 88, N-(5-(4-(4-((dimethylamino)methyl)-3-(thiophen-2-yl)-1H-pyrazol-1-yl)pyrimidin-2-ylamino)-4-methoxy-2-morpholinophenyl)acrylamide]
201 to 1000	< 20	< 20	< 20	< 20	< 20	C=CC(=O)Nc1cc(Nc2nccc(-n3cc(CN4CC(O)C4)c(C)n3)n2)c(OC)cc1N1CCOCC1 [Compound 15, N-(5-(4-(4-((3-hydroxyazetidin-1-yl)methyl)-3-methyl-1H-pyrazol-1-yl)pyrimidin-2-ylamino)-4-methoxy-2-morpholinophenyl)acrylamide]
> 1000	< 20	< 20	< 20	< 20	< 20	C=CC(=O)Nc1cc(Nc2nccc(-n3cc(CN4CCC4)c(C4CC4)n3)n2)c(OC)cc1N1CCN(C(C)=O)CC1 [Compound 138, N-(2-(4-acetylpiperazin-1-yl)-5-(4-(4-(azetidin-1-ylmethyl)-3-cyclopropyl-1H-pyrazol-1-yl)pyrimidin-2-ylamino)-4-methoxyphenyl)acrylamide]
> 1000	< 20	20 to 200	< 20	20 to 200	< 20	C=CC(=O)Nc1cc(Nc2nccc(-n3cc(CN4CCC4)c(-c4ccccc4)n3)n2)c(OC)cc1N(C)C1COC1 [Compound 97, N-(5-(4-(4-(azetidin-1-ylmethyl)-3-phenyl-1H-pyrazol-1-yl)pyrimidin-2-ylamino)-4-methoxy-2-(methyl(oxetan-3-yl)amino)phenyl)acrylamide]
> 1000	< 20	20 to 200	< 20	< 20	20 to 200	C=CC(=O)Nc1cc(Nc2ncc(Cl)c(-n3cc(CN4C[C@H](O)[C@H](OC)C4)c(C)n3)n2)c(OC)cc1N1CCOCC1 [Compound 51, N-(5-(5-chloro-4-(4-(((3S,4R)-3-hydroxy-4-methoxypyrrolidin-1-yl)methyl)-3-methyl-1H-pyrazol-1-yl)pyrimidin-2-ylamino)-4-methoxy-2-morpholinophenyl)acrylamide]
201 to 1000	< 20	< 20	< 20	< 20	< 20	C=CC(=O)Nc1cc(Nc2nccc(-n3cc(CN4CCC4)c(C(C)C)n3)n2)c(OC)cc1N1CCOCC1 [Compound 119, N-(5-(4-(4-(azetidin-1-ylmethyl)-3-isopropyl-1H-pyrazol-1-yl)pyrimidin-2-ylamino)-4-methoxy-2-morpholinophenyl)acrylamide]
> 1000	< 20	< 20	< 20	< 20	< 20	C=CC(=O)Nc1cc(Nc2ncc(C)c(-n3cc(CN4C[C@H](O)[C@H](OC)C4)cn3)n2)c(OC)cc1N(C)CCN(C)C [Compound 43, N-(2-((2-(dimethylamino)ethyl)(methyl)amino)-5-(4-(4-(((3S,4R)-3-hydroxy-4-methoxypyrrolidin-1-yl)methyl)-1H-pyrazol-1-yl)-5-methylpyrimidin-2-ylamino)-4-methoxyphenyl)acrylamide]
> 1000	< 20	< 20	< 20	< 20	< 20	C=CC(=O)Nc1cc(Nc2nccc(-n3cc(CN(C)C)c(-c4ccc(C)cc4)n3)n2)c(OC)cc1N1CCOCC1 [Compound 80, N-(5-(4-(4-((dimethylamino)methyl)-3-p-tolyl-1H-pyrazol-1-yl)pyrimidin-2-ylamino)-4-methoxy-2-morpholinophenyl)acrylamide]
> 1000	< 20	< 20	< 20	< 20	< 20	C=CC(=O)Nc1cc(Nc2nccc(-n3cc(CN4CCC4)c(C)n3)n2)c(OC)cc1C1=CCN(C)CC1 [Compound 59, N-(5-(4-(4-(azetidin-1-ylmethyl)-3-methyl-1H-pyrazol-1-yl)pyrimidin-2-ylamino)-4-methoxy-2-(1-methyl-1,2,3,6-tetrahydropyridin-4-yl)phenyl)acrylamide]
> 1000	< 20	< 20	< 20	< 20	< 20	C=CC(=O)Nc1cc(Nc2nccc(-n3cc(CN(C)CC)c(C4CC4)n3)n2)c(OC)cc1N1CCOCC1 [Compound 140, N-(5-(4-(3-cyclopropyl-4-((ethyl(methyl)amino)methyl)-1H-pyrazol-1-yl)pyrimidin-2-ylamino)-4-methoxy-2-morpholinophenyl)acrylamide]

Reference: patent publication USRE50528E1, “Compounds and compositions for modulating EGFR mutant kinase activities” (Yuhan Corporation, priority 2014, dated 2025)
